Where “and” joins values, the source holds several entries; their conditions need not be identical. Equal values may be shown once.
B1: GM-CSF: murine GM-CSF, a cytokine used in cancer vaccine trials to boost immune response (protein, UniProt P01587 18-141, looked up)
Granulocyte-macrophage …: APTRSPITVTRPWKHVEAIKEALNLLDDMPVTLNEEVEVVSNEFSFKKLTCVQTRLKIFEQGLRGNFTKLKGALNMTASYYQTYCPPTPETDCETQVTTYADFIDSLKTFLTDIPFECKKPGQK

Experiments:
[1] = tested on: B16F10 murine melanoma cells; assay: Survival of B16F10 melanoma-bearing mice, i.p. E6020 with s.c. GM-CSF-secreting tumor cell vaccine; type: in vivo, B6 mice (C57BL/6 mice); settings: i.p. E6020 plus s.c. irradiated B16-GM-CSF cells at separate sites, three days after s.c. B16F10 inoculation; FIG. 1
Source text: To determine the effect of E6020, a sodium salt of ER 804057, when administered intraperitoneally with a cancer vaccine, e.g., granulocyte-macrophage colony stimulating factor (GM-CSF) secreting tumor cells, a mouse model using melanoma cells was used.
E6020 is a TLR4 (Toll-like receptor-4) agonist. B6 mice (C57BL/6 mice) were engrafted subcutaneously with 1×10^6 syngeneic B16F10 murine melanoma cells. Three days after tumor cell inoculation, the mice were either (1) vaccinated subcutaneously (s.c.) with 1×10^6 B16F10 tumor cells that were genetically modified to stably express and secrete murine GM-CSF (B16-GM-CSF cells); (2) vaccinated intraperitoneally (i.p.) with E6020; or (3) were treated with a combination of s.c. GM-CSF cell vaccination and i.p. E6020 (the GM-CSF cell vaccination and E6020 vaccination were administered at separate sites in the mice). In these experiments, the GM-CSF cells were inactivated by gamma-irradiation prior to inoculation. Survival of the animals was monitored.

[2] = tested on: B16F10 murine melanoma cells; assay: Survival of B16F10 melanoma-bearing mice, intratumoral GM-CSF cells with E6020; type: in vivo, B6 mice; settings: intratumoral GM-CSF cells in combination with E6020 (about 3-10 μg) when tumors palpable; versus untreated or GM-CSF cells alone; FIG. 2
Method: The effect of E6020 on treatment of B6 mice that were engrafted subcutaneously with 1×10^6 syngeneic B16F10 murine melanoma cells was examined. When tumors became palpable, the mice were injected intratumorally with GM-CSF cells alone, or in combination with E6020 (about 3-10 μg). Survival of the animals was monitored.

MUC1 IL-10−/− mice = assay: MUC-1 vaccine with E6020 adjuvant in mice that develop IBD followed by colon adenocarcinoma; type: in vivo, mouse
Method: To test the effects of a MUC-1 vaccine with E6020 adjuvant for treating inflammatory bowel disease (IBD) and subsequent development of colon adenocarcinoma, an engineered mouse strain that lacks the IL-10 gene and expresses transgenic human MUC1 was used. Such mice spontaneously develop intestinal inflammation resembling IBD followed by colon adenocarcinoma. […] 4, 2006.
In these experiments, mice were immunized intranasally with […] of Tn MUC100mer ([…])×5, SEQ ID NO:1) and […] of E6020. Animals were vaccinated at about 4.5 weeks and boosted at about 6.5 weeks and 9 weeks.

EGFRvIII peptide = assay: EGFRvIII peptide-specific antibody titers by ELISA after immunization with peptide-KLH conjugate; type: in vivo, C57/BL6J mice; settings: for Geometric mean titer: IgG1 / Geometric mean titer: IgG2a: antigen administered with the named adjuvant, 8 animals; for IgG1 antibody titer to EGFRvIII peptide, individual animals / IgG2a antibody titer to EGFRvIII peptide, individual animals: s.c. peptide-KLH conjugate 25 μg with E6020 3 μg and/or GM-CSF 5 μg, three immunizations at three-week intervals, titer = last serum dilution with signal 0.25 OD units above background
Method: To determine whether an adjuvant can enhance the effect of an oncology antigen (i.e., an antigen that can be used to vaccinate an animal against a cancer), C57/BL6J mice were immunized subcutaneously with a tumor-associated peptide, LEEKKGNYVVTDHC (SEQ ID NO: 2) (derived from a mutant form of EGFR, EGFRvIII) conjugated to the protein carrier keyhole limpet hemocyanin (KLH), with or without E6020 or murine GM-CSF, a cytokine used in cancer vaccine trials to boost immune response. E6020 was dosed at 3 μg, GM-CSF at 5 μg and the peptide-KLH conjugate at 25 μg per dose. Mice were immunized three times at intervals of three weeks. Serum was prepared from mice two weeks after each immunization and tested for EGFRvIII peptide-specific antibodies using ELISA on plates coated with EGFRvIII peptide conjugated to bovine serum albumin. The results in Table 2 are presented as titers from individual animals. The titer is defined as the last serum dilution at which a signal at 0.25 OD units above background was observed.

[3] = addition of E6020 to the MUC-1 vaccine

Molecule | therapeutic efficacy (survival of tumor-bearing mice) [1] | survival of tumor-bearing mice [2] | appearance of histologically detected tumors (MUC1 IL-10−/− mice; [3]) | progression to rectal prolapse associated with IBD (MUC1 IL-10−/− mice; [3]) | Colon tumors (MUC1 IL-10−/− mice; mice with colon tumors / mice treated, MUC1 IL-10−/− mice) | Geometric mean titer: IgG1 (EGFRvIII peptide) | Geometric mean titer: IgG2a (EGFRvIII peptide) | IgG1 antibody titer to EGFRvIII peptide, individual animals (EGFRvIII peptide) | IgG2a antibody titer to EGFRvIII peptide, individual animals (EGFRvIII peptide) | effect on antigen-specific IgG2a titers (in words) (EGFRvIII peptide; vaccination with EGFRvIII peptide-KLH)
CCCCCCCCCCCC(=O)CC(=O)N[C@H](COCC[C@@H](CCCCCCC)OC(=O)CCCCCCCCCCC)COP(=O)(O)OCCNC(=O)NCCOP(=O)(O)OC[C@@H](COCC[C@@H](CCCCCCC)OC(=O)CCCCCCCCCCC)NC(=O)CC(=O)CCCCCCCCCCC [E6020] | enhanced the therapeutic efficacy of the GM-CSF cells | increased survival | suppresses the appearance of histologically detected tumors | slow the progression to rectal prolapse associated with IBD | 3/3 | 20182 | 10091 | 24000 (6×) and 48000 and 3000 | 12000 (3×) and 24000 and 48000 and 1500 and 6000 (2×) | enhanced the mean titer of antigen-specific IgG2a
B1 |  |  |  |  |  | 24000 | 3568 | 24000 (2×) and 48000 (3×) and 12000 (3×) | 3000 (2×) and 6000 (3×) and 24000 and 750 (2×) | 
